Molecular target: T1, human FXR (Homo sapiens, UniProt Q96RI1)
T1 construct: expressed in transfected cells
T1 sequence (Q96RI1 1-486): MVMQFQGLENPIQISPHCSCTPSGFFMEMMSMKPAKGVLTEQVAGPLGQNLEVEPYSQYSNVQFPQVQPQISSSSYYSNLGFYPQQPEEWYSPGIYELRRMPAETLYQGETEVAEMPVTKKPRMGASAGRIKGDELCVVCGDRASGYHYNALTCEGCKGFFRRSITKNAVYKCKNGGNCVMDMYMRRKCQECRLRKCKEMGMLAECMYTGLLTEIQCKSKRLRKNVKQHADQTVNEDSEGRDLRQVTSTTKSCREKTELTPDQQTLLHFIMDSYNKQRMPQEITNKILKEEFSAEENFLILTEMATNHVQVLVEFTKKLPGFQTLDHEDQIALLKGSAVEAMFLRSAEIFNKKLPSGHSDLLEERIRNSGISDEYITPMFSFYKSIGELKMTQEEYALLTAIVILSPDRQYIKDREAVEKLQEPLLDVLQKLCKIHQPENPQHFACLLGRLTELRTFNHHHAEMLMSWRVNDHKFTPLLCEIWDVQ
Assay: FXR reporter assay (cellular FXR activities)
Format: cell-based
Details: for EC50: FXR reporter cells, 24 hours incubation, luciferase, read-out: Reporter Cell EC50; for Emax: read-out: Emax (%) (GW4064 Emax = 100%)
Method: FXR reporter assay was performed to measure cellular FXR activities of the compounds in the present invention. FXR reporter cells with high expression level of human FXR were seeded into 96-well cell culture plates, and incubated for 1-2 hours at 37° C. under 5% CO2 atmosphere. The invented compounds diluted in DMSO with various concentrations were added to the 96-well cell culture plates, and they were incubated for 24 hours at 37° C. under 5% CO2 atmosphere. After incubation, we calculate EC50 by using luciferase substrate.

SMILES	EC50	Emax
COc1cc(C#Cc2ccc(OCc3c(-c4c(Cl)cccc4Cl)noc3C3CC3)cc2Cl)cc(C(=O)O)c1 [Compound I-40, 3-((2-chloro-4-((5-cyclopropyl-3-(2,6-dichlorophenyl)isoxazol-4-yl)methoxy)phenyl)ethynyl)-5-methoxybenzoic acid]	20 to 60 nM	83%
O=Cc1cc(C#Cc2ccc(OCc3c(-c4c(Cl)cccc4Cl)noc3C3CC3)cc2Cl)cc(C(=O)O)c1 [Compound I-41, 3-((2-chloro-4-((5-cyclopropyl-3-(2,6-dichlorophenyl)isoxazol-4-yl)methoxy)phenyl)ethynyl)-5-formylbenzoic acid]	20 to 60 nM	> 100%
CCNCc1cc(C#Cc2ccc(OCc3c(-c4c(Cl)cccc4Cl)noc3C3CC3)cc2Cl)cc(C(=O)O)c1 [Compound I-45, 3-((2-chloro-4-((5-cyclopropyl-3-(2,6-dichlorophenyl)isoxazol-4-yl)methoxy)phenyl)ethynyl)-5-((ethylamino)methyl)benzoic acid]	200 to 1000 nM	88%
O=C(O)c1cc(C#Cc2ccc(OCc3c(-c4c(Cl)cccc4Cl)noc3C3CC3)cc2Cl)cc(CNCC(F)(F)F)c1 [Compound I-46, 3-((2-chloro-4-((5-cyclopropyl-3-(2,6-dichlorophenyl)isoxazol-4-yl)methoxy)phenyl)ethynyl)-5-(((2,2,2-trifluoroethyl)amino)methyl)benzoic acid]	60 to 200 nM	99%
O=C(O)c1cc(C#Cc2ccc(OCc3c(-c4c(Cl)cccc4Cl)noc3C3CC3)cc2Cl)cc(CNC2COC2)c1 [Compound I-51, 3-((2-chloro-4-((5-cyclopropyl-3-(2,6-dichlorophenyl)isoxazol-4-yl)methoxy)phenyl)ethynyl)-5-((oxetan-3-ylamino)methyl)benzoic acid]	200 to 1000 nM	75%

Next, values leading:

EC50	Emax	SMILES
20 to 60 nM	> 100%	O=C(O)c1cc(C#Cc2ccc(OCc3c(-c4c(Cl)cccc4Cl)noc3C3CC3)cc2Cl)cc(CNC2CC2)c1 [Compound I-42, 3-((2-chloro-4-((5-cyclopropyl-3-(2,6-dichlorophenyl)isoxazol-4-yl)methoxy)phenyl)ethynyl)-5-((cyclopropylamino)methyl)benzoic acid]
60 to 200 nM	> 100%	O=C(O)c1cc(C#Cc2ccc(OCc3c(-c4c(Cl)cccc4Cl)noc3C3CC3)cc2Cl)cc(CN2CCC2)c1 [Compound I-43, 3-(azetidin-1-ylmethyl)-5-((2-chloro-4-((5-cyclopropyl-3-(2,6-dichlorophenyl)isoxazol-4-yl)methoxy)phenyl)ethynyl)benzoic acid]
200 to 1000 nM	> 100%	CNCc1cc(C#Cc2ccc(OCc3c(-c4c(Cl)cccc4Cl)noc3C3CC3)cc2Cl)cc(C(=O)O)c1 [Compound I-44, 3-((2-chloro-4-((5-cyclopropyl-3-(2,6-dichlorophenyl)isoxazol-4-yl)methoxy)phenyl)ethynyl)-5-((methylamino)methyl)benzoic acid]
200 to 1000 nM	81%	CC(C)(C)NCc1cc(C#Cc2ccc(OCc3c(-c4c(Cl)cccc4Cl)noc3C3CC3)cc2Cl)cc(C(=O)O)c1 [Compound I-48, 3-((tert-butylamino)methyl)-5-((2-chloro-4-((5-cyclopropyl-3-(2,6-dichlorophenyl)isoxazol-4-yl)methoxy)phenyl)ethynyl)benzoic acid]
20 to 60 nM	> 100%	CN(C)Cc1cc(C#Cc2ccc(OCc3c(-c4c(Cl)cccc4Cl)noc3C3CC3)cc2Cl)cc(C(=O)O)c1 [Compound I-49, 3-((2-chloro-4-((5-cyclopropyl-3-(2,6-dichlorophenyl)isoxazol-4-yl)methoxy)phenyl)ethynyl)-5-((dimethylamino)methyl)benzoic acid]
20 to 60 nM	> 100%	O=C(O)c1cc(C#Cc2ccc(OCc3c(-c4c(Cl)cccc4Cl)noc3C3CC3)cc2Cl)cc(CN2CCOCC2)c1 [Compound I-50, 3-((2-chloro-4-((5-cyclopropyl-3-(2,6-dichlorophenyl)isoxazol-4-yl)methoxy)phenyl)ethynyl)-5-(morpholinomethyl)benzoic acid]

Reference: patent publication US10988449B2, “Isoxazole derivatives as nuclear receptor agonists and uses thereof” (IL DONG PHARMACEUTICAL CO., LTD., priority 2017, dated 2021)
